The text below walks through data of patent publication US11945794B2, “Nuclear transport modulators and uses thereof” (Karyopharm Therapeutics Inc., priority 2013, dated 2024).

pIC50: −log10 of the molar value.

Common to all, as to assay: MTT cell proliferation assay
What all share (type): cell-based

One experiment relates to MM1S cells. Particulars: Homo sapiens, MM1.S, approximately 64-72 hours. Here is the method: (§1) The MTT cell proliferation assay was used to study the cytotoxic properties of the compounds. The assay was performed according to the method described by Roche Molecular Biochemicals, with minor modifications. The assay is based on the cleavage of the tetrazolium salt, MTT, in the presence of an electron-coupling reagent. The water-insoluble formazan salt produced must be solubilized in an additional step. Cells grown in a 96-well tissue culture plate were incubated with the MTT solution for approximately 4 hours. After this incubation period, a water-insoluble formazan dye formed. After solubilization, the formazan dye was quantitated using a scanning multi-well spectrophotometer (ELISA reader). […] The cells were seeded at 5,000-10,000 cells in each well of 96-well plate in 100 μL of fresh culture medium and were allowed to attach overnight. The stock solutions of the compounds were diluted in 100 μL cell culture medium to obtain eight concentrations of each test compound, ranging from 1 nM to 30 μM. […] All optical densities were measured at 490 nm using a Vmax Kinetic Microplate Reader (Molecular Devices). In most cases, the assay was performed in duplicate and the results were presented as a mean percent inhibition to the negative control±SE. The following formula was used to calculate the percent of inhibition: Inhibition (%)=(1−(ODo/OD))×100.
(§2) The compounds were tested against Z138, MM1S and 3T3 cells. The Z138 cell line is a mature B-cell acute lymphoblastic leukemia cell line derived from a patient with chronic lumphocytic leukemia. The MM1S cell line was established from the peripheral blood of a human multiple myeloma patient. 3T3 cells are standard fibroblast cells; they were originally isolated from Swiss mouse embryo tissue.

The subject of the next experiment is 3T3 cells. The settings on record: Mus musculus, NIH3T3, approximately 64-72 hours. Here is the method: as §1, §2
The next experiment relates to Z138 cells. The settings on record: Homo sapiens, Z-138, approximately 64-72 hours. How it is done:
as §1, §2

As to `COc1ccc(/C(=C\n2cnc(-c3cc(C(F)(F)F)cc(C(F)(F)F)c3)n2)C(=O)O)cn1` [Compound 121, (E)-3-(3-(3,5-bis(trifluoromethyl)phenyl)-1H-1,2,4-triazol-1-yl)-2-(6-methoxypyridin-3-yl) acrylic acid], the pIC50 in the experiment on MM1S cells was under 4.52. Same read-out and setting: then `COc1ccc(/C(=C\n2cnc(-c3cc(C(F)(F)F)cc(C(F)(F)F)c3)n2)C(N)=O)cn1` [Compound 127, (E)-3-(3-(3,5-bis-(trifluoromethyl)-phenyl)-1H-1,2,4-triazol-1-yl)-2-(6-methoxypyridin-3-yl)acrylamide], with 5.30 to 7.00. For the compound `NC(=O)/C(=C/n1cnc(-c2cc(C(F)(F)F)cc(C(F)(F)F)c2)n1)c1cccnc1Cl` [Compound 144, (E)-3-(3-(3,5-bis(trifluoromethyl)phenyl)-1H-1,2,4-triazol-1-yl)-2-(2-chloropyridin-3-yl)acrylamide], the pIC50 in the experiment on 3T3 cells was under 4.52; in the experiment with MM1S cells, 5.30 to 7.00; with Z138 cells, 5.30 to 7.00. In the case of `NC(=O)/C(=C\n1cnc(-c2cc(C(F)(F)F)cc(C(F)(F)F)c2)n1)c1cncnc1` [Compound 153, (Z)-3-(3-(3,5-bis(trifluoromethyl)phenyl)-1H-1,2,4-triazol-1-yl)-2-(pyrimidin-5-yl)acrylamide], the pIC50 in the experiment with 3T3 cells is under 4.52; in the experiment on MM1S cells, over 7.00; in the experiment with Z138 cells, 5.30 to 7.00.

`NC(=O)/C(=C/n1cnc(-c2cc(C(F)(F)F)cc(C(F)(F)F)c2)n1)c1ccc(-c2cccnc2)cc1` [Compound 151, (E)-3-(3-(3,5-bis(trifluoromethyl)phenyl)-1H-1,2,4-triazol-1-yl)-2-(4-(pyridin-3-yl)phenyl)acrylamide]: the pIC50 is under 4.52 in the experiment on 3T3 cells, 5.30 to 7.00 with MM1S cells and 4.52 to 5.30 in the experiment on Z138 cells. Consider `O=C(O)/C(=C/n1cnc(-c2cc(C(F)(F)F)cc(C(F)(F)F)c2)n1)c1cncc(F)c1` [Compound 125, (E)-3-(3-(3,5-bis(trifluoromethyl)phenyl)-1H-1,2,4-triazol-1-yl)-2-(5-fluoropyridin-3-yl)acrylic acid], for which the pIC50 in the experiment with MM1S cells is under 4.52.

Turning to `NC(=O)/C(=C/n1cnc(-c2cc(C(F)(F)F)cc(C(F)(F)F)c2)n1)c1cccnc1F` [Compound 135, (E)-3-(3-(3,5-bis(trifluoromethyl)phenyl)-1H-1,2,4-triazol-1-yl)-2-(2-fluoropyridin-3-yl)acrylamide], the pIC50 was under 4.52 in the experiment with 3T3 cells, over 7.00 in the experiment on MM1S cells and 5.30 to 7.00 with Z138 cells. Taken in the same sequence, the figures for `NC(=O)/C(=C/n1cnc(-c2cc(C(F)(F)F)cc(C(F)(F)F)c2)n1)c1cccc(F)n1` [Compound 134, (E)-3-(3-(3,5-bis(trifluoromethyl)phenyl)-1H-1,2,4-triazol-1-yl)-2-(6-fluoropyridin-2-yl)acrylamide] were 5.30 to 7.00, over 7.00 and 5.30 to 7.00. Compound `CC(C)OC(=O)/C(=C/n1cnc(-c2cc(C(F)(F)F)cc(C(F)(F)F)c2)n1)c1ccoc1` [Compound 122, isopropyl (E)-3-(3-(3,5-bis (trifluoromethyl)phenyl)-1H-1,2,4-triazol-1-yl)-2-(furan-3-yl) acrylate] showed a pIC50 in the experiment on MM1S cells of 5.30 to 7.00. Still for that read-out and setting: the same measure for `NC(=O)/C(=C/n1cnc(-c2cc(C(F)(F)F)cc(C(F)(F)F)c2)n1)c1ccoc1` [Compound 129, (E)-3-(3-(3,5-bis(trifluoromethyl)phenyl)-1H-1,2,4-triazol-1-yl)-2-(furan-3-yl) acrylamide]: 5.30 to 7.00. In the case of `NC(=O)/C(=C/n1cnc(-c2cc(C(F)(F)F)cc(C(F)(F)F)c2)n1)c1ccc(-c2ccccc2)c(F)c1` [Compound 150, (E)-3-(3-(3,5-bis(trifluoromethyl)phenyl)-1H-1,2,4-triazol-1-yl)-2-(2-fluorobiphenyl-4-yl)acrylamide], the pIC50 in the experiment on 3T3 cells is under 4.52; in the experiment with MM1S cells, 4.52 to 5.30; with Z138 cells, 4.52 to 5.30. `CC(C)OC(=O)/C(=C/n1cnc(-c2cc(C(F)(F)F)cc(C(F)(F)F)c2)n1)c1ccncc1` [Compound 106, isopropyl (E)-3-(3-(3,5-bis(trifluoromethyl)phenyl)-1H-1,2,4-triazol-1-yl)-2-(pyridin-4-yl)acrylate]: in the experiment with MM1S cells, the pIC50 is 5.30 to 7.00. With `Cc1noc(C)c1/C(=C\n1cnc(-c2cc(C(F)(F)F)cc(C(F)(F)F)c2)n1)C(=O)O` [Compound 117, (E)-3-(3-(3,5-bis(trifluoromethyl)phenyl)-1H-1,2,4-triazol-1-yl)-2-(3,5-dimethylisoxazol-4-yl) acrylic acid], the pIC50 in the experiment on MM1S cells was under 4.52. Consider `CN(C)C(=O)/C(=C/n1cnc(-c2cc(C(F)(F)F)cc(C(F)(F)F)c2)n1)c1cccnc1` [Compound 112, (E)-3-(3-(3,5-bis(trifluoromethyl)phenyl)-1H-1,2,4-triazol-1-yl)-N,N-dimethyl-2-(pyridin-3-yl)acrylamide], for which the pIC50 with MM1S cells was under 4.52.

Take `NC(=O)/C(=C\n1cnc(-c2cc(C(F)(F)F)cc(C(F)(F)F)c2)n1)c1cccnc1F` [Compound 157, (Z)-3-(3-(3,5-bis(trifluoromethyl)phenyl)-1H-1,2,4-triazol-1-yl)-2-(2-fluoropyridin-3-yl)acrylamide]: the pIC50 in the experiment with 3T3 cells, in the experiment with MM1S cells and in the experiment on Z138 cells was 5.30 to 7.00 each time. Take `N#C/C(=C/n1cnc(-c2cc(C(F)(F)F)cc(C(F)(F)F)c2)n1)c1nccs1` [Compound 110, (Z)-3-(3-(3,5-bis(trifluoromethyl)phenyl)-1H-1,2,4-triazol-1-yl)-2-(thiazol-2-yl)acrylonitrile]: the pIC50 in the experiment on MM1S cells was 5.30 to 7.00.

Consider `NC(=O)/C(=C/n1cnc(-c2cc(C(F)(F)F)cc(C(F)(F)F)c2)n1)c1ccc(F)nc1` [Compound 139, (E)-3-(3-(3,5-bis(trifluoromethyl)phenyl)-1H-1,2,4-triazol-1-yl)-2-(6-fluoropyridin-3-yl)acrylamide], for which the pIC50 in the experiment with 3T3 cells is under 4.52; in the experiment with MM1S cells, 5.30 to 7.00; in the experiment with Z138 cells it was 5.30 to 7.00. For `O=C(O)/C(=C/n1cnc(-c2cc(C(F)(F)F)cc(C(F)(F)F)c2)n1)c1ccncc1` [Compound 107, (E)-3-(3-(3,5-bis(trifluoromethyl)phenyl)-1H-1,2,4-triazol-1-yl)-2-(pyridin-4-yl)acrylic acid], the pIC50 with MM1S cells is 4.52 to 5.30.

In turn, `NC(=O)/C(=C\n1cnc(-c2cc(C(F)(F)F)cc(C(F)(F)F)c2)n1)c1ccc(F)nc1` [Compound 154, (Z)-3-(3-(3,5-bis(trifluoromethyl)phenyl)-1H-1,2,4-triazol-1-yl)-2-(6-fluoropyridin-3-yl)acrylamide] showed a pIC50 in the experiment with MM1S cells of 5.30 to 7.00. Take `NC(=O)/C(=C/n1cnc(-c2cc(C(F)(F)F)cc(C(F)(F)F)c2)n1)c1ccnnc1` [Compound 133, (E)-3-(3-(3,5-bis(trifluoromethyl)phenyl)-1H-1,2,4-triazol-1-yl)-2-(pyridazin-4-yl)acrylamide]: the figures for the pIC50 in the experiment on 3T3 cells, in the experiment with MM1S cells and in the experiment with Z138 cells were 4.52 to 5.30, over 7.00 and over 7.00, respectively.

Regarding `NC(=O)/C(=C/n1cnc(-c2cc(C(F)(F)F)cc(C(F)(F)F)c2)n1)c1ccc2cn[nH]c2c1` [Compound 152, (E)-3-(3-(3,5-bis(trifluoromethyl)phenyl)-1H-1,2,4-triazol-1-yl)-2-(1H-indazol-6-yl)acrylamide], the figures for the pIC50 in the experiment on 3T3 cells, in the experiment on MM1S cells and in the experiment on Z138 cells were under 4.52, 5.30 to 7.00 and 5.30 to 7.00, respectively. As to `NC(=O)/C(=C/n1cnc(-c2cc(C(F)(F)F)cc(C(F)(F)F)c2)n1)c1cncc(F)c1` [Compound 126, (E)-3-(3-(3,5-Bis(trifluoromethyl)phenyl)-1H-1,2,4-triazol-1-yl)-2-(5-fluoropyridin-3-yl)acrylamide], the pIC50 in the experiment with 3T3 cells is under 4.52; in the experiment on MM1S cells it was over 7.00; in the experiment on Z138 cells, over 7.00. In the case of `Cn1cc(/C(=C\n2cnc(-c3cc(C(F)(F)F)cc(C(F)(F)F)c3)n2)C(=O)O)cn1` [Compound 131, (E)-3-(3-(3,5-bis(trifluoromethyl)phenyl)-1H-1,2,4-triazol-1-yl)-2-(1-methyl-1H-pyrazol-4-yl)acrylic acid], in the experiment with MM1S cells, the pIC50 is 5.30 to 7.00.

Compound `O=C(O)/C(=C/n1cnc(-c2cc(C(F)(F)F)cc(C(F)(F)F)c2)n1)c1ccoc1` [Compound 128, (E)-3-(3-(3,5-bis(trifluoromethyl)phenyl)-1H-1,2,4-triazol-1-yl)-2-(furan-3-yl) acrylic acid] showed a pIC50 in the experiment with MM1S cells of under 4.52.

In the experiment on MM1S cells, `CC(C)OC(=O)/C(=C/n1cnc(-c2cc(C(F)(F)F)cc(C(F)(F)F)c2)n1)c1nccs1` [Compound 109, isopropyl (Z)-3-(3-(3,5-bis(trifluoromethyl)phenyl)-1H-1,2,4-triazol-1-yl)-2-(thiazol-2-yl)acrylate] gave a pIC50 of 5.30 to 7.00. With `O=C(O)/C(=C/n1cnc(-c2cc(C(F)(F)F)cc(C(F)(F)F)c2)n1)c1cncnc1` [Compound 123, (E)-3-(3-(3,5-bis(trifluoromethyl)phenyl)-1H-1,2,4-triazol-1-yl)-2-(pyrimidin-5-yl) acrylic acid], in the experiment on MM1S cells, the pIC50 was under 4.52.

What is called pIC50 is the IC50 on a negative log10 scale, so that one unit is a factor of ten. Read a low pIC50 as a large IC50.
